Key:
[1] = target: T1, human adenosine A2A receptor (Homo sapiens, UniProt P29274); test: Antagonizing effect on human adenosine A2A receptor (NECA-stimulated cAMP, TR-FRET, HEK-293 cells); assay type: cell-based; conditions: inhibition of cAMP produced by NECA (3 nM), HEK-293 cells expressing human recombinant A2A receptor
T1 construct: expressed in transfected cells; host or cells: HEK-293
Protocol: The experimental system uses human recombinant adenosine A2A receptor, which is stably expressed in HEK-293 cell line. HEK-293 cells were inoculated into culture plate at a density of 1.25×10^5 cells/mL. The medium was changed by modified HBSS solution with pH 7.4, different concentrations of test compounds ([…], 1 μM, […], 10 nM, 1 nM, 0.1 nM) and solvents (PBS with 0.1% DMSO) were added, and the plate was incubated at 37° C. for 10 min. cAMP (cyclic adenosine monophosphate) concentration in culture medium was detected by TR-FRET method. NECA was used as a positive control in this experiment, (1) test compounds alone were used to stimulate cells to produce a certain amount of cAMP, and then NECA (0.1 μM) alone was used to stimulate cells to produce a certain amount of cAMP. A test compound is considered to have agonistic activity on adenosine A2A receptor if the test compound alone stimulates cells to produce cAMP more than 50% of the amount of cAMP produced by NECA (0.1 μM) alone. (2) All cells were first incubated with test compounds and then stimulated with NECA (3 nM). In addition, NECA (3 nM) alone was used to stimulate cells to produce a certain amount of cAMP. […] IC50 was calculated using MathIQ™ (ID Business Solutions Ltd., UK) through nonlinear, least squares regression equation analysis.

[2] = Pharmacokinetic evaluation in rats after intravenous or gavage administration; assay type: in vivo, SD rats; conditions: for AUC(0-inf) / AUC(0-t) / Cmax / MRT inf / Tmax / clearance / half-life / Vd: SD, rat, plasma; for Vd: read-out: Vss; for F: gavage 5 mg/kg vs intravenous 1 mg/kg
Protocol: (§1) The LC-MS/MS system for analysis includes the Agilent 1200 series vacuum degasser, a quaternary pump, an orifice plate sampler, a thermostatted column oven, and an API4000Qtrap triple quadrupole mass spectrometer with an electrospray ionization source (ESI).
(§2) Waters ACQUITY UPLC CSH C18, 2.1×50 mm, 1.7 μm column was used for analysis, and 0.8 μL of sample was injected. Analytical conditions: mobile phase was H2O+2 mM HCOONH4 (ammonium formate)+0.1% FA (formic acid) (mobile phase A) and MeOH (methanol)+2 mM HCOONH4 (ammonium formate)+0.1% FA (formic acid) (mobile phase B). Flow rate was 0.7 mL/min.
The experiment was divided into two groups: one was administered by intravenous injection, and the other was administered by intragastric administration. The compound of the present invention was administered to a test animal (overnight fast for 12 hours) in the form of 10% DMA (heating)+60% PEG400+30% saline solution. For the group of intravenous administration, the administration dose was 1 mg/kg, and vein blood samples (0.3 mL) were collected at the time points of 0.083, 0.25, 0.5, 1.0, 2.0, 5.0, 7.0 and 24 h after administration. EDTA-K2 as anticoagulant was added into the blood vessel. The plasma solutions were collected by centrifuging each blood sample at 3,000 rpm or 4,000 rpm for 10 minutes and kept at −20° C. or −70° C. For the group of intragastric administration, the administration dose was 5 mg/kg, and vein blood samples (0.3 mL) were collected at the time points of 0.25, 0.5, 1.0, 2.0, 5.0, 7.0 and 24 h after administration. EDTA-K2 as anticoagulant was added into the blood vessel. The plasma solutions were collected by centrifuging each blood sample at 3,000 rpm or 4,000 rpm for 10 minutes and kept at −20° C. or −70° C.
20 μL of plasma was taken, 120 μL of IS working solution was added to the plasma, and the plasma was vortexed for 2 min. The mixed solution was then centrifuged at 12,000 rpm for 2 min. 100 μL of the supernatant was taken, 110 μL of MeOH/H2O (v/v=1/1) was added, and the solution was vortexed for 2 minutes, then 5 μL was taken for injection into the LC-MS/MS system. LC-MS/MS method was used to detect the concentration of target compounds, and non-compartment model was used to calculate pharmacokinetic parameters.

[3] = Pharmacokinetic evaluation in beagles after intravenous or gavage administration; assay type: in vivo; conditions: for AUC(0-inf) / AUC(0-t) / Cmax / MRT inf / Tmax / clearance / half-life / Vd: beagle, dog, plasma; for Vd: read-out: Vss; for F: gavage 2.5 mg/kg vs intravenous 0.5 mg/kg
Protocol: The test animals are mice and/or dogs.
as §1
as §2, with “A waters xbridge C18 UPLC,” for “Waters ACQUITY UPLC CSH C18,”, “[…]” for “1.7 μm”, “analysis” for “analysis,”, “0.5” for “0.8”, “The flow” for “Flow”
The experiment was divided into two groups: one was administered by intravenous injection, and the other was administered by intragastric administration. The compound of the present invention was administered to test animals in the form of 10% DMA+60% PEG400+30% saline solution. […] Each blood sample was centrifuged at 3,000 rpm or 4,000 rpm for 10 minutes. The plasma solutions were collected and anticoagulant was EDTA-K2. The plasma solutions were then kept at −20° C. or −70° C. […]
10 μL of plasma was taken, 120 μL of IS working solution was added to the plasma, and the plasma was vortexed for 2 min. The mixed solution was then centrifuged at 12,000 rpm for 2 min. 80 μL of the supernatant was taken, 140 μL of MeOH/H2O (v/v=1/1) was added, and the solution was vortexed for 2 minutes, then 1.0 μL was taken for injection into the LC-MS/MS system. LC-MS/MS method was used to detect the concentration of target compounds, and non-compartment model was used to calculate pharmacokinetic parameters.

[4] = intravenous injection, 0.5 mg/kg

T1 sequence (P29274 whole entry): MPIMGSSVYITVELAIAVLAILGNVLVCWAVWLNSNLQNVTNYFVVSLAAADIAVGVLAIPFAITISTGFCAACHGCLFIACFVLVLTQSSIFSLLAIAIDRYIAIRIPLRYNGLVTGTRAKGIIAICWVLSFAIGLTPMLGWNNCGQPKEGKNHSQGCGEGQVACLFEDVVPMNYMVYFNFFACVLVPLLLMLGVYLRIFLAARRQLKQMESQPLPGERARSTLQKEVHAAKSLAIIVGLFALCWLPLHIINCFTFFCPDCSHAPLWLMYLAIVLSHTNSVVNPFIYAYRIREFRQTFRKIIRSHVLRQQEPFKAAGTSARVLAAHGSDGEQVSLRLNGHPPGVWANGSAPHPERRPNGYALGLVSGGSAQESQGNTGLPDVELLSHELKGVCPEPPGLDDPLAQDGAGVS

IC50 [1]	AUC(0-inf) ([2]; intravenous injection, 1 mg/kg)	AUC(0-t) ([2]; intravenous injection, 1 mg/kg)	Cmax ([2]; intravenous injection, 1 mg/kg)	MRT inf ([2]; intravenous injection, 1 mg/kg)	Tmax ([2]; intravenous injection, 1 mg/kg)	clearance ([2]; intravenous injection, 1 mg/kg)	half-life ([2]; intravenous injection, 1 mg/kg)	Vd ([2]; intravenous injection, 1 mg/kg)	AUC(0-inf) ([2]; po, gavage, 5 mg/kg)	AUC(0-t) ([2]; po, gavage, 5 mg/kg)	Cmax ([2]; po, gavage, 5 mg/kg)	MRT inf ([2]; po, gavage, 5 mg/kg)	Tmax ([2]; po, gavage, 5 mg/kg)	half-life ([2]; po, gavage, 5 mg/kg)	F [2]	AUC(0-inf) [3, 4]	AUC(0-t) [3, 4]	Cmax [3, 4]	MRT inf [3, 4]	Structure (SMILES)	other results
550 nM																				CCn1c(=O)c2c(nc(/C=C/c3ccc(OC4CCNCC4)cc3)n2C)n(CC)c1=O [Example 1, (E)-1,3-diethyl-7-methyl-8-(4-(piperidin-4-yloxy)styryl)-1H-purine-2,6(3H,7H)-dione]	
1480 nM																				CCN1CCC(Oc2ccc(/C=C/c3nc4c(c(=O)n(CC)c(=O)n4CC)n3C)cc2)CC1 [Example 3, (E)-1,3-diethyl-7-methyl-8-(4-((1-ethylpiperidin-4-yl)oxy)styryl)-1H-purine-2,6(3H,7H)-dione]	
350 nM	6290 ng·h/mL	6230 ng·h/mL	1610 ng/mL	4.37 h	0.083 h	2.65 mL/min/kg	3.82 h	0.696 L/kg	40400 ng·h/mL	36900 ng·h/mL	2930 ng/mL	9.22 h	1.5 h	6.96 h	118.4%	6110 ng·h/mL	5830 ng·h/mL	634 ng/mL	7.37 h	CCn1c(=O)c2c(nc(/C=C/c3ccc(OC4CCN(C(C)=O)CC4)cc3)n2C)n(CC)c1=O [Example 6, (E)-8-(4-((1-acetylpiperidin-4-yl)oxy)styryl)-1,3-diethyl-7-methyl-1H-purine-2,6 (3H,7H)-dione]	Tmax [3, 4]: 0.25 h; clearance [3, 4]: 1.36 mL/min/kg; half-life [3, 4]: 5.81 h; Vd [3, 4]: 0.604 L/kg; AUC(0-inf) ([3]; po, gavage, 2.5 mg/kg): 56500 ng·h/mL; AUC(0-t) ([3]; po, gavage, 2.5 mg/kg): 47200 ng·h/mL; Cmax ([3]; po, gavage, 2.5 mg/kg): 3320 ng/mL; MRT inf ([3]; po, gavage, 2.5 mg/kg): 12.5 h; Tmax ([3]; po, gavage, 2.5 mg/kg): 2.67 h; half-life ([3]; po, gavage, 2.5 mg/kg): 9.11 h; F [3]: 170.5%
750 nM	1830 ng·h/mL	1810 ng·h/mL	817 ng/mL	3.1 h	0.083 h	9.1 mL/min/kg	4.64 h	1.69 L/kg	11900 ng·h/mL	11900 ng·h/mL	2030 ng/mL	4.07 h	1.67 h	2.8 h	131.5%	6310 ng·h/mL	4990 ng·h/mL	775 ng/mL	14.4 h	CCn1c(=O)c2c(nc(/C=C/c3ccc(OC4CCN(S(C)(=O)=O)CC4)cc3)n2C)n(CC)c1=O [Example 8, (E)-1,3-diethyl-7-methyl-8-(4-((1-(methylsulfonyl)piperidin-4-yl)oxy)styryl)-1H-purine-2,6(3H, 7H)-dione]	Tmax [3, 4]: 0.083 h; clearance [3, 4]: 1.32 mL/min/kg; half-life [3, 4]: 9.43 h; Vd [3, 4]: 1.14 L/kg; AUC(0-inf) ([3]; po, gavage, 2.5 mg/kg): 31800 ng·h/mL; AUC(0-t) ([3]; po, gavage, 2.5 mg/kg): 22700 ng·h/mL; Cmax ([3]; po, gavage, 2.5 mg/kg): 1720 ng/mL; MRT inf ([3]; po, gavage, 2.5 mg/kg): 18.1 h; Tmax ([3]; po, gavage, 2.5 mg/kg): 0.667 h; half-life ([3]; po, gavage, 2.5 mg/kg): 11.5 h; F [3]: 91.1%
